Structures are written as SMILES.

These results are taken from ChEMBL document CHEMBL3769380, “New Synthetic Routes to Triazolo-benzodiazepine Analogues: Expanding the Scope of the Bump-and-Hole Approach for Selective Bromo and Extra-Terminal (BET) Bromodomain Inhibition” (J Med Chem, 2016).

Experiment [1] addresses T1, Bromodomain-containing protein 2 (Homo sapiens, UniProt P25440). The experiment in a line: Binding affinity to recombinant poly-His-tagged BRD2 bromodomain 1 (unknown origin) by isothermal titration calorimetry.
Experiment [2] addresses T1, Bromodomain-containing protein 2. Briefly: Binding affinity to recombinant poly-His-tagged BRD2 bromodomain 2 (unknown origin) by isothermal titration calorimetry.
Experiment [3] deals with DH5-alpha. Briefly: Selectivity ratio of Kd for N-terminal His6-tagged BRD2 bromodomain 1 (unknown origin) expressed in competent Escherichia coli BL21(DE3) cells to Kd for BRD2 bromodomain 1 L110A mutant (unknown origin) expressed in competent Escherichia coli DH5-alpha cells. The conditions noted are these: Homo sapiens.
The test system of experiment [4] is DH5-alpha. The experiment in a line: Selectivity ratio of Kd for N-terminal His6-tagged BRD2 bromodomain 2 (unknown origin) expressed in competent Escherichia coli BL21(DE3) cells to Kd for BRD2 bromodomain 2 L383A mutant (unknown origin) expressed in competent Escherichia coli DH5-alpha cells. To be noted: Homo sapiens.
Experiment [5] relates to DH5-alpha. Briefly: Selectivity ratio for BRD2 bromodomain 1 L110A mutant (unknown origin) expressed in competent Escherichia coli DH5-alpha cells over N-terminal His6-tagged BRD2 bromodomain 1 (unknown origin) expressed in competent Escherichia coli BL21(DE3) cells by differential scanning fluorimetry. To be noted: Homo sapiens.
For experiment [6], the system named is DH5-alpha. Briefly: Selectivity ratio for BRD2 bromodomain 2 L383A mutant (unknown origin) expressed in competent Escherichia coli DH5-alpha cells over N-terminal His6-tagged BRD2 bromodomain 2 (unknown origin) expressed in competent Escherichia coli BL21(DE3) cells by differential scanning fluorimetry. To be noted: Homo sapiens.

T1 sequence (P25440 whole entry): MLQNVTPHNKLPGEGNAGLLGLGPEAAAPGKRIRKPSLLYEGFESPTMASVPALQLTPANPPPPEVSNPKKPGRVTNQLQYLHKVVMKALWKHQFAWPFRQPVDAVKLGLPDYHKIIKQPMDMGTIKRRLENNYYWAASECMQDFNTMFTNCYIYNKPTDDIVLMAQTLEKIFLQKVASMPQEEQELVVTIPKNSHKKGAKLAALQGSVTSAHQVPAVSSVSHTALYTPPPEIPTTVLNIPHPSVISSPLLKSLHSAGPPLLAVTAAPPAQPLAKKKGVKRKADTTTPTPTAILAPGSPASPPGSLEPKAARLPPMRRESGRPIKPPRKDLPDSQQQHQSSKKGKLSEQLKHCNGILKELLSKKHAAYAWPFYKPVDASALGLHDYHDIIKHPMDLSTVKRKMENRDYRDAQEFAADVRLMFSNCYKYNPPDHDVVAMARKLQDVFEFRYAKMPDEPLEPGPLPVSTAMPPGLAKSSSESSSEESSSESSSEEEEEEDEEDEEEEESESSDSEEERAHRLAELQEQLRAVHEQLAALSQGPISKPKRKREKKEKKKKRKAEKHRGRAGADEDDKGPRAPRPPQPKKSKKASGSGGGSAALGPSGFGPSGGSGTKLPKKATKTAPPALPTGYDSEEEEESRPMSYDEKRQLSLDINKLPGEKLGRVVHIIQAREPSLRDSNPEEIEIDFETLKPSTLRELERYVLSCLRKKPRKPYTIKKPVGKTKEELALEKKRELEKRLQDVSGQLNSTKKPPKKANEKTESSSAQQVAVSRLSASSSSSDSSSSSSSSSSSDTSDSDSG

For `CC(=O)NCCCCn1c2c(c3ccccc31)C(=O)NCC2`, the Kd in experiment [1] is 8.6 µM; in experiment [2], greater than 300 µM.

As for `CC[C@@H](C(=O)OC)[C@@H]1N=C(c2ccc(Cl)cc2)c2cc(OC)ccc2-n2c(C)nnc21`, the Selectivity ratio in experiment [3], in experiment [4], in experiment [5] and in experiment [6] was less than 540 each time.
